Each block holds one compound with its values, some of them ahead of it.
Key:
[1] = molecular target: T1, Peroxisome proliferator-activated receptor alpha (Homo sapiens, UniProt Q07869); test: Agonist activity at PPARalpha; format: functional
T1 sequence (Q07869 whole entry): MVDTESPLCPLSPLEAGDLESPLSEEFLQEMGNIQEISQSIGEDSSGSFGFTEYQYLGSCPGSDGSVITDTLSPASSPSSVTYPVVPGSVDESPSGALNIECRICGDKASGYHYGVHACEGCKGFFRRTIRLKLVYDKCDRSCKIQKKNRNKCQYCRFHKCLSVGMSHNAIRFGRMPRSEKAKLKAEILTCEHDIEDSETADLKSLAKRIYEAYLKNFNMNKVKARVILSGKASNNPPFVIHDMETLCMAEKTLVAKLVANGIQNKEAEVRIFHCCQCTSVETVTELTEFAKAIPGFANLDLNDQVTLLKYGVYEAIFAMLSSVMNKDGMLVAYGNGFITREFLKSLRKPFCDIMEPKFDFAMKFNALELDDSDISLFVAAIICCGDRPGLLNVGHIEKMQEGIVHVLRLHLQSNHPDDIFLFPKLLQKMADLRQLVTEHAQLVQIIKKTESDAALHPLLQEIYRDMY

[2] = molecular target: T2, Peroxisome proliferator-activated receptor gamma (Homo sapiens, UniProt P37231); test: Binding affinity to PPARgamma
T2 sequence (P37231 whole entry): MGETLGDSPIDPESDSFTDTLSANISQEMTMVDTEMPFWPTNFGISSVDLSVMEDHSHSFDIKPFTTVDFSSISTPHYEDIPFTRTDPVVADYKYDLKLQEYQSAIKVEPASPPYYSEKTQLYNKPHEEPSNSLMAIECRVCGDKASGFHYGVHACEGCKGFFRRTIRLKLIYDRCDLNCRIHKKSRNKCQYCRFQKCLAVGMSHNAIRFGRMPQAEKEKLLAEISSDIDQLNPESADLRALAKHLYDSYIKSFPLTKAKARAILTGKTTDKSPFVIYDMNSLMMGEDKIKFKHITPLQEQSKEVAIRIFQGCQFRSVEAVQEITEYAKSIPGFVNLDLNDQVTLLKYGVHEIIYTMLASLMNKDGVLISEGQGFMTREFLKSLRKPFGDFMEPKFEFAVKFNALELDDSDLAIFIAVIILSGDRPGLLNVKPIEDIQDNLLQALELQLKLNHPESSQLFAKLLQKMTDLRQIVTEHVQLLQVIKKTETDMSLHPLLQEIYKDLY

Homo sapiens [3] = species: Homo sapiens; test: Selectivity ratio for PPRalpha over PPRgamma
Homo sapiens [4] = species: Homo sapiens; test: Selectivity ratio for PPRbeta/delta over PPRgamma
Homo sapiens [5] = species: Homo sapiens; test: Selectivity ratio for human PPRgamma over human PPRbeta/delta
Mus musculus [6] = species: Mus musculus; test: Selectivity ratio for mouse PPRgamma to mouse PPRbeta/delta
Homo sapiens [7] = species: Homo sapiens; test: Selectivity ratio for human PPRalpha over human PPRbeta/delta
Mus musculus [8] = species: Mus musculus; test: Selectivity ratio for mouse PPRalpha over mouse PPRbeta/delta

EC50 [1]: 60 nM
Structure (SMILES): CC(C)(Oc1ccc(CCOc2ccc(/C=C/C(=O)c3cc(Cl)ccc3O)cc2)cc1)C(=O)O

Kd [2]: 2000 nM
Structure (SMILES): CCCCCC(O)/C=C\C=C/CCCCCCCC(=O)O (stereo not drawn)

Selectivity ratio (Homo sapiens [3]): > 1000
Selectivity ratio (Homo sapiens [4]): > 1000
Structure (SMILES): CN(CCOc1ccc(C[C@H](Nc2ccccc2C(=O)c2ccccc2)C(=O)O)cc1)c1ccccn1

Kd [2]: 2000 nM
Structure (SMILES): CC/C=C\C/C=C\C/C=C\C/C=C\C/C=C\CCCC(=O)O [ICOSAPENT]

More lines, now with the values behind:

Structure (SMILES): CCCCC/C=C\C=C\C(O)CCCCCCCC(=O)O (stereo not drawn)
Kd [2]: 2000 nM

Structure (SMILES): COC(=O)c1ccccc1N[C@@H](Cc1ccc(OCCc2nc(-c3ccccc3)oc2C)cc1)C(=O)O
Selectivity ratio (Homo sapiens [3]): > 1000
Selectivity ratio (Homo sapiens [4]): > 1000

Structure (SMILES): CCCCC/C=C/C=C1/C(=O)C=C[C@@H]1C/C=C\CCCC(=O)O
Kd [2]: 2000 nM

Structure (SMILES): CCCc1c(OCCCOc2ccc(OCC(=O)O)cc2)ccc(C(C)=O)c1O
Selectivity ratio (Homo sapiens [5]): > 100
Selectivity ratio (Mus musculus [6]): > 100
Selectivity ratio (Homo sapiens [7]): > 100
Selectivity ratio (Mus musculus [8]): > 100

— ChEMBL document CHEMBL2069220, “Targeting peroxisome proliferator-activated receptors (PPARs): development of modulators” (J Med Chem, 2012)
